What was measured:
Type in all cases: cell-based
[1] = target: T1, progesterone receptor (PRB) (Homo sapiens, UniProt P06401); assay: Progestogen activity assay using progesterone receptor transactivation; details: 100 nM, AH3-luc reporter, COS7
T1 construct: expressed in transfected cells; host or cells: COS 7
T1 sequence (P06401 1-933): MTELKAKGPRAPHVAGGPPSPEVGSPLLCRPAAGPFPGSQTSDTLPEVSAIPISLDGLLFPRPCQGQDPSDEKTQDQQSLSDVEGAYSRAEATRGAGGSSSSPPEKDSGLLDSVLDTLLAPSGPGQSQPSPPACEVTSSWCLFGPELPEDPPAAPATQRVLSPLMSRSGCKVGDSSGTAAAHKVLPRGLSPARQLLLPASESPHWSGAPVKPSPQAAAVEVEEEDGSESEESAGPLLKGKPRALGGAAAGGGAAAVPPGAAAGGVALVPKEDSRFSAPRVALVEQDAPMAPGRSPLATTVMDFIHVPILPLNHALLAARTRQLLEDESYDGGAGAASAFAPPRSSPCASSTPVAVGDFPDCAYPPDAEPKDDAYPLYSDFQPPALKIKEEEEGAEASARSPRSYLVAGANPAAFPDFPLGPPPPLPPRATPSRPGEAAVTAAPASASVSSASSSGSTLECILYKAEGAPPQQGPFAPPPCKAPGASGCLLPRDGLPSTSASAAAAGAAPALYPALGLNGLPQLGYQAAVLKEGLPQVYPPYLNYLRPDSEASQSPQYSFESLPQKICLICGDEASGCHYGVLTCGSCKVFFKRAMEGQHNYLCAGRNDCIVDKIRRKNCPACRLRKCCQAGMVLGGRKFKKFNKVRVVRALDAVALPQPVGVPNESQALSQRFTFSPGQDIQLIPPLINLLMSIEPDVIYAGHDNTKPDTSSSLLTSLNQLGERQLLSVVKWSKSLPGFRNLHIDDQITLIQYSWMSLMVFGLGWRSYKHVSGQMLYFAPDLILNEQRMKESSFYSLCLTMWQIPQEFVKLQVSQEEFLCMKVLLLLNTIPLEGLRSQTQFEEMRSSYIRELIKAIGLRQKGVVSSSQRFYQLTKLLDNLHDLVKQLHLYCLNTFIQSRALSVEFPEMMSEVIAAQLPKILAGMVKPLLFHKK
From the text: As the GR LBD has strong homology with the PR LBD there is a chance that any of the tested steroids of FIGS. 1 and 2A that activate one of these receptors may also activate the other. The presence of illegitimate progestogen activity associated with the steroids of FIGS. 1 and 2A was examined using a transactivation assay with the PR instead of the GR.
The PR was artificially expressed in a cell line lacking endogenous PR and a GRE “driving” a luciferase reporter gene was used to measure ligand dependent activation.
COS7 cells were transfected with 1 μg pSEO-PRB and 3 μg AH3-Luc per 10 cm tissue culture dish. The cells were plated out in to 24 well plates after transfection and the steroids of FIGS. 1 and 2A were added immediately to generate a final concentration of 100 nM. After 18 hour incubation the cells were lysed and a luciferase assay was performed.

[2] = target: T2, GR ligand binding domain / SRC-1 (Homo sapiens, UniProt P04150); assay: SRC-1 association assay by mammalian two-hybrid analysis; details: 100 nM
T2 construct: expressed in transfected cells
T2 sequence (P04150 524-758 limits assumed): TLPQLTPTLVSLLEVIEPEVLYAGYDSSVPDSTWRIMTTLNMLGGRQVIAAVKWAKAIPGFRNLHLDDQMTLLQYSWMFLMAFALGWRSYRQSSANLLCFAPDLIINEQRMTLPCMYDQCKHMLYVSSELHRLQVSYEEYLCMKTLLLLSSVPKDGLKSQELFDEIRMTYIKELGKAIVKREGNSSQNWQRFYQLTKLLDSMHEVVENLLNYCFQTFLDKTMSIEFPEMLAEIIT
From the text: SRC-1 is an important co-activator of GR action that associates with the GR in a ligand dependant manner. The ability of SRC-1 to associate with the GR in this manner can be used as a measure of potency of ligand mediated transactivation. To perform this assay plasmids that generated VP16-GR ligand binding domain (LBD) and GAL4-SRC-1 fusion proteins and a GAL4 binding luciferase reporter gene construct were transfected into in a cell line lacking GR and deficient in endogenous SRC-1. The GAL4-SRC-1 fusion protein could bind to specific sites upstream of the luciferase reporter gene construct. If the SRC-1 fusion protein associated with the ligand bound VP16-GRLBD fusion protein then the VP-16 activation domain augmented the luciferase gene expression.

[3] = target: T3, glucocorticoid receptor (Homo sapiens, UniProt P04150); assay: Transactivation assay using artificially expressed glucocorticoid receptor in the COS 7 monkey kidney cell line (GRE luciferase); set-up: expressed in transfected cells; host or cells: COS 7 (African green monkey kidney, deficient in endogenous GR); details: 1, 10, 10 and 500 nM; FIG. 5
T3 sequence (P04150 1-777): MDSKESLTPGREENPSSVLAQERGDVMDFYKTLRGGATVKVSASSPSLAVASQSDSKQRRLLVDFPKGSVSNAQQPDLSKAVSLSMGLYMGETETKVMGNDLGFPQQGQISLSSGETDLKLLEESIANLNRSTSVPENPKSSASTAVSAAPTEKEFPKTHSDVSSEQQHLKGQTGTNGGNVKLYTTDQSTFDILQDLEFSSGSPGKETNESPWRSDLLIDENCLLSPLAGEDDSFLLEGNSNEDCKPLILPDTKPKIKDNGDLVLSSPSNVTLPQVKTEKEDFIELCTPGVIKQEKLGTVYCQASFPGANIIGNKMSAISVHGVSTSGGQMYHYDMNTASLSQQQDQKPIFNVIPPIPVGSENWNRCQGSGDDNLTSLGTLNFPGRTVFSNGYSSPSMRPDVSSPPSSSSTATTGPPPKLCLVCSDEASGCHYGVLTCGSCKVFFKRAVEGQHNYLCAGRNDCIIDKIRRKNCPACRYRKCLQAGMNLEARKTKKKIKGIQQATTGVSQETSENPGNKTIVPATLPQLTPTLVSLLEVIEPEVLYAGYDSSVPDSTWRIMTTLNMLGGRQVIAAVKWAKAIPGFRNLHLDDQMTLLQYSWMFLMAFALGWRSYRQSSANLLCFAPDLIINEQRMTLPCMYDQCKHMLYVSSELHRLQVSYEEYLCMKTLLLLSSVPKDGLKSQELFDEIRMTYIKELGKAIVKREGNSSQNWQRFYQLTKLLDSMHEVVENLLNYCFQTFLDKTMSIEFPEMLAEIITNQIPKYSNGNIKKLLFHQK
Method: (§1) All transfections were performed using lipofectamine plus (Gibco BRL), according to the manufacturers' instructions, as previously described^1. Briefly, all cells were seeded at 5×10^5 per 10 cm tissue culture plate 18 hours before transfection, the next day the relevant plasmids were mixed with serum free medium and “Plus” reagent (Gibco BRL) and incubated for 15 mins, lipofectamine reagent was added and the mix was incubated for a further 15 mins, this mix was added to the cells on serum free medium in the 10 cm tissue culture plates and left for 3 hours, the cells were then trypsinised and divided into 24 well plates, the cells were left to recover overnight and were treated with steroid for 16 hours before harvest. All experiments were performed from one transfection in triplicate and on separate occasions with similar results.
(§2) The firefly luciferase gene catalyses the production of light from the substrate luciferin. When plasmid constructs containing this gene are transfected into cell lines the activity of the gene can be assessed by the intensity of the luminesence. The luciferase assay yields luminescence through an ATP-dependent oxidation of luciferin the amount of light produced can be measured by a luminometer and is a measure of gene activity (Davis, 1996). Light intensity was measured in a Luminometer (LB 9501, Berthold). The light intensity should be proportional to luciferase concentration in the range of 10^−16M (10 μg/L) to 10^−8M (1 mg/L). To measure the luminescence of the treated cells 150 μl of 1× reporter lysis buffer (RLB: 25 mM Tris phosphate pH7.8, 10 mM MgCl2, 15% Glycerol, 1% Triton, 1 mM EDTA) was added to the 24 well plates to lyse the cells and incubated at room temperature for 30 mins whilst being shaken. Then 100 μl of the room temperature cell extract were mixed with 100 μl of room temperature Luciferase Assay Reagent (LAR: 1 mM ATP, 0.3 mM D-Luciferin, 66% RLB). This reaction was mixed in a luminometer (LB 9501, Berthold) and the light produced was measured for a period of 5 seconds.
In this assay the GR was artificially expressed in a cell line lacking endogenous GR and a glucocorticoid response element (GRE) “driving” a luciferase reporter gene was used to measure ligand dependent activation.
COS7 cells were transfected with 1 μg pcDNA3-GR and 3 μg AH3-Luc per 10 cm tissue culture dish. The cells were plated out in to 24 well plates after transfection and the steroids were added immediately. After 18 hour incubation the cells were lysed and a luciferase assay was performed.

[4] = target: T3, glucocorticoid receptor; assay: Transrepression assay using artificially expressed glucocorticoid receptor and P65 in the COS 7 cell line (NRE luciferase); set-up: expressed in transfected cells; host or cells: COS 7 (African green monkey kidney, deficient in endogenous GR); details: 1, 10 and 100 nM
Method: as §1, §2
To perform this assay the GR and p65 were artificially expressed in a cell line lacking GR and deficient in endogenous P65. The ability of P65 to activate an NFkB response element (NRE) “driving” a luciferase reporter gene could then be repressed by GR in a ligand dependent manner and, therefore, used to measure transrepression.
COS7 cells were transfected with 1 μg pcDNA3-GR and 3 μg NRE-Luc and 200 ng p65 per 10 cm tissue culture dish. The cells were plated out in to 24 well plates after transfection and left for 18 hours to recover before the steroids of FIGS. 1 and 2A were added. After another 18 hour incubation the cells were lysed and a luciferase assay was performed.

[5] = target: T3, glucocorticoid receptor; assay: Type II antagonist activity assay: competition of dexamethasone transactivation; set-up: expressed in transfected cells; host or cells: COS 7 (African green monkey kidney, deficient in endogenous GR); details: 1, 10, 100 nM; 1 nM dexamethasone
Method: A type II antagonist should be able to compete agonist activity. As an antagonist has no ability to transactivate, competition can be measured by inhibition of an agonist in a transactivation assay.
As with the standard transactivation assay previously described, the GR was artificially expressed in a cell line lacking endogenous GR and a GRE “driving” a luciferase reporter gene was used to measure ligand dependent activation. COS7 cells were transfected with 1 μg pcDNA3-GR and 3 μg AH3-Luc per 10 cm tissue culture dish. The cells were plated out in to 24 well plates after transfection and the steroids were added immediately. […] Certain steroids from FIG. 2A were added at the same concentration to all sample wells. After 18 hour incubation the cells were lysed and a luciferase assay was performed.

SMILES	PRB reporter gene activation [1]	other results
CNC(=O)C1(O)C(C)CC2C3CCC4=CC(=O)C=CC4(C)C3(F)C(O)CC21C (stereo not shown) [Compound M]	slightly increased reporter gene activation compared to that of dexamethasone	
CC1CC2C3CCC4=CC(=O)C=CC4(C)C3(F)C(O)CC2(C)C1(O)C(=O)COC(=O)Nc1ccccc1 (stereo not shown) [Compound N]	slightly increased reporter gene activation compared to that of dexamethasone	
CC1CC2C3CCC4=CC(=O)C=CC4(C)C3(F)C(O)CC2(C)C1(O)C(=O)NCc1ccccc1 (stereo not shown) [Compound K]	slightly increased reporter gene activation compared to that of dexamethasone	SRC-1 recruitment at the highest concentration tested [2]: significant response
CCCN(CCC)C(=O)C1(O)C(C)CC2C3CCC4=CC(=O)C=CC4(C)C3(F)C(O)CC21C (stereo not shown) [P]		transactivation potential (luminescence) compared to dexamethasone, repeat experiment [3]: “right shifted response” and a reduced maximum compared to dexamethasone; repression of P65 stimulation of an NFkB response element compared with dexamethasone [4]: no effect at 1 and 10 nM with only a negligible repression at 100 nM
CC1CC2C3CCC4=CC(=O)C=CC4(C)C3(F)C(O)CC2(C)C1(O)C(=O)COC(=O)Nc1ccc(F)cc1 (stereo not shown) [Compound S]	slightly increased reporter gene activation compared to that of dexamethasone	SRC-1 recruitment at the highest concentration tested [2]: significant response
CC#C[C@]1(O)CC[C@H]2[C@@H]3CCC4=CC(=O)CCC4=C3[C@@H](c3ccc(N(C)C)cc3)C[C@@]21C [RU486, reference compound]		maximal repression of transactivation [5]: ~50%
CC(=O)[C@H]1CC[C@H]2[C@@H]3CCC4=CC(=O)CC[C@]4(C)[C@H]3CC[C@]12C [progesterone, reference compound]	strong induction of the reporter gene	
